Reference: US5972950A, “1,2-diarylmethylene derivatives, their methods of preparation and their uses in therapeutics” (Laboratories UPSA, priority 1996, dated 1999)

Columns and labels:
[1] = test system: carrageenan-induced paw oedema; assay: oedema with carrageenan (anti-inflammatory activity) in rats; assay type: in vivo; settings: rat, oral, oedema volume 3 hours after carrageenan, n=6
Procedure: Anti-Inflammatory Activity
The anti-inflammatory activity is evaluated in rats by the test of oedema with carrageenan. The product is administered orally at a rate of 2.5 ml/100 g (n=6 animals per dose) 2 hours 30 minutes after a water overload taken orally (2.5 ml/ 100 g). One hour after administration of the product, the oedema is induced by plantar subcutaneous injection of aqueous 2% carrageenan solution.

[2] = test system: pain response in kaolin arthritis; assay: arthritis with kaolin (analgesic activity) in rats; assay type: in vivo; settings: rat, oral, pain response 5 hours 30 minutes after administration, n=10
Procedure: The analgesic activity is evaluated in rats by the test of arthritis with kaolin. Thirty minutes after intra-articular administration of an aqueous 10% suspension of kaolin, the product is administered orally at a rate of 1 ml/100 g (n=10 animals per dose).

COX-2 = assay: inhibition of COX-2 enzymatic activity (PGE2 by EIA); assay type: biochemical; settings: purified enzyme from ewe placenta, mean ± standard deviation, 4 determinations
Procedure: (§1) Inhibition Of The COX-1 and COX-2 Enzymatic Activities The molecule studied is preincubated for 10 minutes at 25° C. with 2 U of COX-1 (purified enzyme from ram seminal vesicles) or 1 U of COX-2 (purified enzyme from ewe placenta). Arachidonic acid (6 μM for COX-1, 4, μM for COX-2) is added to the reaction medium and incubation is carried out for 5 minutes at 25° C. When incubation has ended, the enzymatic reaction is stopped by the addition of 1 N HCl and the PGE2 produced is determined by EIA. The results are expressed as the percentage inhibition of the COX-1 and COX-2 enzymatic activities and correspond to mean (±) standard deviations from the average of 4 determinations.

COX-1 = assay: inhibition of COX-1 enzymatic activity (PGE2 by EIA); assay type: biochemical; settings: purified enzyme from ram seminal vesicles, mean ± standard deviation, 4 determinations
Procedure: as §1

## CCOC(=O)/C(CCO)=C(/c1ccc(S(C)(=O)=O)cc1)c1cc(Cl)cc(Cl)c1 [Example 14, Ethyl (Z)-3-(3,5-dichlorophenyl)-3-(4-methanesulphonylphenyl)-2-(2-hydroxyethyl)prop-2-enoate]
[1]; 30 mg/kg
  Anti-inflammatory activity % inhibition: 28.9 ± 4.5%
[2]; 30 mg/kg
  Analgesic activity % inhibition: 45.8 ± 10.9%
COX-2; 10^-5 M
  % inhibition of COX-2 activity: 80 ± 2%
COX-2; 10^-7 M
  % inhibition of COX-2 activity: 16 ± 9%
COX-1; 10^-5 M
  % inhibition of COX-1 activity: 0 ± 0%
COX-1; 10^-7 M
  % inhibition of COX-1 activity: 0 ± 0%

## CS(=O)(=O)c1ccc(/C(=C(\CCO)C(=O)[O-])c2ccc(Cl)c(Cl)c2)cc1.[Na+] [Example 27, Sodium (Z)-3-(3,4-dichlorophenyl)-3-(4-methanesulphonylphenyl)-2-(2-hydroxyethyl)prop-2-enoate]
[1]; 100 mg/kg
  Anti-inflammatory activity % inhibition: 32.4 ± 8.2%
[2]; 100 mg/kg
  Analgesic activity % inhibition: 63.6 ± 13.2%
